Laboratory results from US10995101B2, “2-oxo-thiazole derivatives as A2A inhibitors and compounds for use in the treatment of cancers” (iTeos Therapeutics SA, priority 2017, dated 2021).

Legend:
in vitro = details: human, Caco-2, pH 7.4
A2A receptor = A2A receptor (Homo sapiens, UniProt P29274); assay: Inhibition of cAMP production in HEK cells; assay type: cell-based; details: HEK-293 cells with A2A receptor
Protocol: When the A2A receptor is activated, is induces the production of cAMP.
HEK-293 cells with a stable transfection of A2A receptor were bought from PerkinElmer® (# ES-011-C). […] Fresh media without the selection marker was added on the day immediately before the experiment to stop selection pressure.
Stimulation buffer b) mimics the human situation by increasing the amount of albumin present in the assay.
Compounds of the present invention were diluted 100× in either of the buffers depending on the assay performed. […] The total volume of the reaction was 20 μl (10 μl of cells, 5 μl of antagonist and 5 μl of agonist). The reaction was finalized by adding 10 μl of 4× EU-cAMP tracer working solution and 10 μl of 4× ULight-anti-cAMP working solution. The TR-FRET signal was measured after 1 hour using a Spectramax Paradigm (Molecular Devices).

[1] = IC50 (nM) (3 nM NECA as agonist, 0.1% BSA), 3 nM NECA as agonist, 0.1% BSA
[2] = IC50 (nM) (5 nM NECA as agonist, 2% HSA), 5 nM NECA as agonist, 2% HSA
[3] = IC50 (nM) (5 μM Adenosine as agonist, 2.0% HSA), 5 μM Adenosine as agonist, 2.0% HSA

A2A receptor, sequence (P29274 whole entry): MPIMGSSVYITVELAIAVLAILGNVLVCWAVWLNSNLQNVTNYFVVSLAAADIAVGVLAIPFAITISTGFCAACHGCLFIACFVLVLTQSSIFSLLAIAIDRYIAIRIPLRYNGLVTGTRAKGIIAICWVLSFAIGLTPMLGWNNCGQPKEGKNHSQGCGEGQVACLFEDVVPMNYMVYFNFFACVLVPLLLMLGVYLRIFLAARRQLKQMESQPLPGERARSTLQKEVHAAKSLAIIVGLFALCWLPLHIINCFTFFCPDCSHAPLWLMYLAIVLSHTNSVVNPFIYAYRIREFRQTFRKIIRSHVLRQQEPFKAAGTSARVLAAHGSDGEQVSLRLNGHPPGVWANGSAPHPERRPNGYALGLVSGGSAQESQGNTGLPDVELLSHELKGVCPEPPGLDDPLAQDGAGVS

Row | SMILES | efflux ratio at 120 min, 2 μM (in vitro) | IC50 (A2A receptor; [1]) [nM] | IC50 (A2A receptor; [2]) [nM] | IC50 (A2A receptor; [3]) [nM]
1 | Cn1cnc(COc2cc(N3CCN(CCn4c(=O)sc5c4nc(N)n4nc(-c6ccco6)nc54)CC3)c(F)cc2F)n1 [Compound 68, 5-amino-3-(2-(4-(2,4-difluoro-5-((1-methyl-1H-1,2,4-triazol-3-yl)methoxy)phenyl)piperazin-1-yl)ethyl)-8-(furan-2-yl)thiazolo[5,4-e][1,2,4]triazolo[1,5-c]pyrimidin-2(3H)-one] | 108 | 14 | 123 | 2700
2 | C[S@+]([O-])c1ccc(N2CCN(CCn3c(=O)sc4c3nc(N)n3nc(-c5ccco5)nc43)CC2)c(F)c1 (single isomer, unassigned) [Compound 120] | 33 | 0.4 | – | 123
3 | C[S@@+]([O-])CCNC(=O)c1cc(N2CCN(CCn3c(=O)sc4c3nc(N)n3nc(-c5ccco5)nc43)CC2)c(F)cc1F [Compound 114, (R)-5-(4-(2-(5-amino-8-(furan-2-yl)-2-oxothiazolo[5,4-e][1,2,4]triazolo[1,5-c]pyrimidin-3(2H)-yl)ethyl)piperazin-1-yl)-2,4-difluoro-N-(2-(methylsulfinyl)ethyl)benzamide] | 403 | 0.3 | – | 80
4 | Nc1nc2c(sc(=O)n2CCN2CCN(c3ccc(OCC(=O)N4CCNCC4)cc3F)CC2)c2nc(-c3ccco3)nn12 [Compound 24, 5-amino-3-(2-(4-(2-fluoro-4-(2-oxo-2-(piperazin-1-yl)ethoxy)phenyl)piperazin-1-yl)ethyl)-8-(furan-2-yl)thiazolo[5,4-e][1,2,4]triazolo[1,5-c]pyrimidin-2(3H)-one] | 117 | 0.8 | 2 | 137
5 | Nc1nc2c(sc(=O)n2CCN2CCN(c3cc(O[C@H]4CC[S@+]([O-])CC4)c(F)cc3F)CC2)c2nc(-c3ccco3)nn12 [Compound 112, 5-amino-3-(2-(4-(2,4-difluoro-5-(((1r,4r)-1-oxidotetrahydro-2H-thiopyran-4-yl)oxy)phenyl)piperazin-1-yl)ethyl)-8-(furan-2-yl)thiazolo[5,4-e][1,2,4]triazolo[1,5-c]pyrimidin-2(3H)-one] | 605 | 0.8 | – | 53
6 | Nc1nc2c(sc(=O)n2CCN2CCN(c3ccc(OCC(O)C(F)(F)F)cc3F)CC2)c2nc(-c3ccco3)nn12 (stereo not shown) [Compound 87, 5-amino-3-(2-(4-(2-fluoro-4-(3,3,3-trifluoro-2-hydroxypropoxy)phenyl)piperazin-1-yl)ethyl)-8-(furan-2-yl)thiazolo[5,4-e][1,2,4]triazolo[1,5-c]pyrimidin-2(3H)-one] | 7 | 1.1 | – | 432
7 | C[C@H](CN(C)C)NC(=O)c1ccc(N2CCN(CCn3c(=O)sc4c3nc(N)n3nc(-c5ccco5)nc43)CC2)c(F)c1 [Compound 57, (R)-4-(4-(2-(5-amino-8-(furan-2-yl)-2-oxothiazolo[5,4-e][1,2,4]triazolo[1,5-c]pyrimidin-3(2H)-yl)ethyl)piperazin-1-yl)-N-(1-(dimethylamino)propan-2-yl)-3-fluorobenzamide] | 2200 | 0.2 | 2 | 56
8 | C[S@+]([O-])CCOc1ccc(N2CCN(CCn3c(=O)sc4c3nc(N)n3nc(-c5ccco5)nc43)CC2)c(F)c1 (single isomer, unassigned) [Compound 5] | 67 | 0.4 | 8 | 241
9 | Cc1cc(N2CCN(CCn3c(=O)sc4c3nc(N)n3nc(-c5ccco5)nc43)CC2)c(F)cn1 [Compound 82, 5-amino-3-(2-(4-(5-fluoro-2-methylpyridin-4-yl)piperazin-1-yl)ethyl)-8-(furan-2-yl)thiazolo[5,4-e][1,2,4]triazolo[1,5-c]pyrimidin-2(3H)-one] | 3 | 0.2 | – | 15
10 | CNCCN(C)C(=O)c1ccc(N2CCN(CCn3c(=O)sc4c3nc(N)n3nc(-c5ccco5)nc43)CC2)c(F)c1 [Compound 55, 4-(4-(2-(5-amino-8-(furan-2-yl)-2-oxothiazolo[5,4-e][1,2,4]triazolo[1,5-c]pyrimidin-3(2H)-yl)ethyl)piperazin-1-yl)-3-fluoro-N-methyl-N-(2-(methylamino)ethyl)benzamide] | 205 | 1 | 2 | 141
11 | Nc1nc2c(sc(=O)n2CCN2CCN(c3cc(O[C@H]4CNC[C@H]4F)c(F)cc3F)CC2)c2nc(-c3ccco3)nn12 [Compound 94, 5-amino-3-(2-(4-(2,4-difluoro-5-(((3S,4R)-4-fluoropyrrolidin-3-yl)oxy)phenyl)piperazin-1-yl)ethyl)-8-(furan-2-yl)thiazolo[5,4-e][1,2,4]triazolo[1,5-c]pyrimidin-2(3H)-one] | 173 | – | – | –
12 | Nc1nc2c(sc(=O)n2CCN2CCN(c3ccc(C(=O)NCC(O)CO)cc3F)CC2)c2nc(-c3ccco3)nn12 (stereo not shown) [Compound 34, 4-(4-(2-(5-amino-8-(furan-2-yl)-2-oxothiazolo[5,4-e][1,2,4]triazolo[1,5-c]pyrimidin-3(2H)-yl)ethyl)piperazin-1-yl)-N-(2,3-dihydroxypropyl)-3-fluorobenzamide] | 192 | 0.3 | 6 | 207
13 | Cn1cnc(COc2ccc(N3CCN(CCn4c(=O)sc5c4nc(N)n4nc(-c6ccco6)nc54)CC3)c(F)c2)n1 [Compound 67, 5-amino-3-(2-(4-(2-fluoro-4-((1-methyl-1H-1,2,4-triazol-3-yl)methoxy)phenyl)piperazin-1-yl)ethyl)-8-(furan-2-yl)thiazolo[5,4-e][1,2,4]triazolo[1,5-c]pyrimidin-2(3H)-one] | 15 | 0.6 | 9 | 378
14 | Nc1nc2c(sc(=O)n2CCN2CCN(c3cc(OCc4nnn[nH]4)c(F)cc3F)CC2)c2nc(-c3ccco3)nn12 [Compound 66, 3-(2-(4-(5-((1H-tetrazol-5-yl)methoxy)-2,4-difluorophenyl)piperazin-1-yl)ethyl)-5-amino-8-(furan-2-yl)thiazolo[5,4-e][1,2,4]triazolo[1,5-c]pyrimidin-2(3H)-one] | 1010 | 0.8 | 13 | 543
15 | CN(C)CCN(C)C(=O)c1cc(N2CCN(CCn3c(=O)sc4c3nc(N)n3nc(-c5ccco5)nc43)CC2)c(F)cc1F [Compound 64, 5-(4-(2-(5-amino-8-(furan-2-yl)-2-oxothiazolo[5,4-e][1,2,4]triazolo[1,5-c]pyrimidin-3(2H)-yl)ethyl)piperazin-1-yl)-N-(2-(dimethylamino)ethyl)-2,4-difluoro-N-methylbenzamide] | 60 | 0.6 | 1 | 36
16 | Nc1nc2c(sc(=O)n2CCN2CCN(c3cc4c(cc3F)NC(=O)C4)CC2)c2nc(-c3ccco3)nn12 [Compound 79, 5-amino-3-(2-(4-(6-fluoro-2-oxoindolin-5-yl)piperazin-1-yl)ethyl)-8-(furan-2-yl)thiazolo[5,4-e][1,2,4]triazolo[1,5-c]pyrimidin-2(3H)-one] | 47 | 0.3 | – | 77
17 | Nc1nc2c(sc(=O)n2CCN2CCN(c3ccc(CCC(=O)O)cc3F)CC2)c2nc(-c3ccco3)nn12 [Compound 40, 3-(4-(4-(2-(5-amino-8-(furan-2-yl)-2-oxothiazolo[5,4-e][1,2,4]triazolo[1,5-c]pyrimidin-3(2H)-yl)ethyl)piperazin-1-yl)-3-fluorophenyl)propanoic acid] | 25 | 0.7 | 7 | 261
18 | CC(C)(O)c1ccc(N2CCN(CCn3c(=O)sc4c3nc(N)n3nc(-c5ccco5)nc43)CC2)c(F)c1 [Compound 86, 5-amino-3-(2-(4-(2-fluoro-4-(2-hydroxypropan-2-yl)phenyl)piperazin-1-yl)ethyl)-8-(furan-2-yl)thiazolo[5,4-e][1,2,4]triazolo[1,5-c]pyrimidin-2(3H)-one] | 5 | 0.6 | – | 747
19 | Nc1nc2c(sc(=O)n2CCN2CCN(c3cc(C(=O)N4CC[S+]([O-])CC4)c(F)cc3F)CC2)c2nc(-c3ccco3)nn12 [Compound 117, 5-amino-3-(2-(4-(2,4-difluoro-5-(1-oxidothiomorpholine-4-carbonyl)phenyl)piperazin-1-yl)ethyl)-8-(furan-2-yl)thiazolo[5,4-e][1,2,4]triazolo[1,5-c]pyrimidin-2(3H)-one] | 12 | 329 | – | 3160
20 | Nc1nc2c(sc(=O)n2CCN2CCN(c3ccncc3F)CC2)c2nc(-c3ccco3)nn12 [Compound 3, 5-amino-3-(2-(4-(3-fluoropyridin-4-yl)piperazin-1-yl)ethyl)-8-(furan-2-yl)thiazolo[5,4-e][1,2,4]triazolo[1,5-c]pyrimidin-2(3H)-one] | 4 | – | – | –
21 | CN(CCOc1ccc(N2CCN(CCn3c(=O)sc4c3nc(N)n3nc(-c5ccco5)nc43)CC2)c(F)c1)CC(N)=O [Compound 46, 2-((2-(4-(4-(2-(5-amino-8-(furan-2-yl)-2-oxothiazolo[5,4-e][1,2,4]triazolo[1,5-c]pyrimidin-3(2H)-yl)ethyl)piperazin-1-yl)-3-fluorophenoxy)ethyl)(methyl)amino)acetamide] | 30 | – | – | –
